Patent US12281122B1, “PI3K inhibitors” (Cogent Biosciences, Inc., priority 2023, dated 2025)

Experiments:
[1] = system: SKBR3 (PI3Kα-Wild Type) cell line; assay: HTRF phospho-AKT(S473) cell assay in SKBR3 cells; assay type: cell-based, human; conditions: Homo sapiens, SK-BR-3; HTRF phospho-AKT(S473), SKBR3 (PI3Kα-Wild Type) cells, 2 hours compound incubation, PDGF-BB stimulated
In short: (§1)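 pAKT(S473) in lysates read by HTRF after a 2 h, 37 °C compound exposure (12-point 1:3 series, max 0.5% DMSO). SKBR3 (wild type, top 10 μM) received 70 ng/ml PDGF-BB during the final 15 min; T47D (H1047R, top 5 μM) was unstimulated. IC50 values derived from the dose-response.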

[2] = system: T47D (PI3Kα-H1047R) cell line; assay: HTRF phospho-AKT(S473) cell assay in T47D cells; assay type: cell-based, human; conditions: Homo sapiens; HTRF phospho-AKT(S473), T47D (PI3Kα-H1047R) cells, 2 hours compound incubation
In short: as §1

SMILES | IC50 [1] [nM] | IC50 [2] [nM]
Cc1cc([C@@H](C)Nc2ccc(Cl)nc2C(=O)NS(C)(=O)=O)c2nc(N3C[C@@H]4[C@H](C3)[C@H]4c3nnn(C)n3)n(C)c(=O)c2c1 [Compound 496, 6-chloro-3-(((R)-1-(3,6-dimethyl-2-((1R,5S,6R)-6-(2-methyl-2H-tetrazol-5-yl)-3-azabicyclo[3.1.0]hexan-3-yl)-4-oxo-3,4-dihydroquinazolin-8-yl)ethyl)amino)-N-(methylsulfonyl) picolinamide] | 1000 to 5000 | < 250
Cc1cc([C@@H](C)Nc2ccc(Cl)nc2C(=O)NS(C)(=O)=O)c2nc(N3C[C@@H]4[C@H](C3)[C@H]4c3nn(C)nc3C)n(C)c(=O)c2c1 [Compound 497, 6-chloro-3-(((R)-1-(2-((1R,5S,6R)-6-(2,5-dimethyl-2H-1,2,3-triazol-4-yl)-3-azabicyclo[3.1.0]hexan-3-yl)-3,6-dimethyl-4-oxo-3,4-dihydroquinazolin-8-yl)ethyl)amino)-N-(methylsulfonyl) picolinamide] | 1000 to 5000 | < 250
Cc1cc([C@@H](C)Nc2ccc(Cl)nc2C(=O)NS(C)(=O)=O)c2nc(N3C[C@@H]4[C@H](C3)[C@H]4c3nnn(C)c3C)n(C)c(=O)c2c1 [Compound 498, 6-chloro-3-(((R)-1-(2-((1R,5S,6R)-6-(1,5-dimethyl-1H-1,2,3-triazol-4-yl)-3-azabicyclo[3.1.0]hexan-3-yl)-3,6-dimethyl-4-oxo-3,4-dihydroquinazolin-8-yl)ethyl)amino)-N-(methylsulfonyl) picolinamide] | 1000 to 5000 | < 250
Cc1cc([C@@H](C)Nc2ccc(Cl)nc2C(=O)NS(C)(=O)=O)c2nc(N3CCC(c4ncc(Cl)cn4)CC3)n(C)c(=O)c2c1 [Compound 499, (R)-6-chloro-3-((1-(2-(4-(5-chloropyrimidin-2-yl)piperidin-1-yl)-3,6-dimethyl-4-oxo-3,4-dihydroquinazolin-8-yl)ethyl)amino)-N-(methylsulfonyl) picolinamide] | ≥ 5000 | 250 to 500
Cc1cc([C@@H](C)Nc2ccc(Cl)nc2C(=O)NS(C)(=O)=O)c2nc(N3CCC(c4ncccn4)CC3)n(C)c(=O)c2c1 [Compound 500, (R)-6-chloro-3-((1-(3,6-dimethyl-4-oxo-2-(4-(pyrimidin-2-yl)piperidin-1-yl)-3,4-dihydroquinazolin-8-yl)ethyl)amino)-N-(methylsulfonyl) picolinamide] | 1000 to 5000 | 250 to 500
Cc1cc([C@@H](C)Nc2ccc(Cl)nc2C(=O)NS(C)(=O)=O)c2nc(N3CCC(c4ccnn4C4CC4)CC3)n(C)c(=O)c2c1 [Compound 501, (R)-6-chloro-3-((1-(2-(4-(1-cyclopropyl-1H-pyrazol-5-yl)piperidin-1-yl)-3,6-dimethyl-4-oxo-3,4-dihydroquinazolin-8-yl)ethyl)amino)-N-(methylsulfonyl) picolinamide] | 1000 to 5000 | < 250
Cc1cnc([C@H]2[C@@H]3CN(c4nc5c([C@@H](C)Nc6ccc(Cl)nc6C(=O)NS(C)(=O)=O)cc(C)cc5c(=O)n4C)C[C@@H]32)nc1 [Compound 502, 6-chloro-3-(((R)-1-(3,6-dimethyl-2-((1R,5S,6R)-6-(5-methylpyrimidin-2-yl)-3-azabicyclo[3.1.0]hexan-3-yl)-4-oxo-3,4-dihydroquinazolin-8-yl)ethyl)amino)-N-(methylsulfonyl) picolinamide] | 1000 to 5000 | 250 to 500
Cc1cc([C@@H](C)Nc2ccc(Cl)nc2C(=O)NS(C)(=O)=O)c2nc(N3CCC(c4csc(C)n4)CC3)n(C)c(=O)c2c1 [Compound 503, (R)-6-chloro-3-((1-(3,6-dimethyl-2-(4-(2-methylthiazol-4-yl)piperidin-1-yl)-4-oxo-3,4-dihydroquinazolin-8-yl)ethyl)amino)-N-(methylsulfonyl) picolinamide] | 1000 to 5000 | < 250
Cc1cc([C@@H](C)Nc2ccc(Cl)nc2C(=O)NS(C)(=O)=O)c2nc(N3CCC(c4ncc(C(F)F)cn4)CC3)n(C)c(=O)c2c1 [Compound 504, (R)-6-chloro-3-((1-(2-(4-(5-(difluoromethyl)pyrimidin-2-yl)piperidin-1-yl)-3,6-dimethyl-4-oxo-3,4-dihydroquinazolin-8-yl)ethyl)amino)-N-(methylsulfonyl) picolinamide] | 1000 to 5000 | < 250
Cc1cc([C@@H](C)Nc2ccc(Cl)nc2C(=O)NS(C)(=O)=O)c2nc(N3CCC(c4nn(C5CC5)cc4F)CC3)n(C)c(=O)c2c1 [Compound 505, (R)-6-chloro-3-((1-(2-(4-(1-cyclopropyl-4-fluoro-1H-pyrazol-3-yl)piperidin-1-yl)-3,6-dimethyl-4-oxo-3,4-dihydroquinazolin-8-yl)ethyl)amino)-N-(methylsulfonyl) picolinamide] | ≥ 5000 | 250 to 500

Now from value to compound:

IC50 [1] [nM] | IC50 [2] [nM] | SMILES
1000 to 5000 | < 250 | Cc1cc([C@@H](C)Nc2ccc(Cl)nc2C(=O)NS(C)(=O)=O)c2nc(N3CCC(c4nn(C)nc4C)CC3)n(C)c(=O)c2c1 [Compound 506, (R)-6-chloro-3-((1-(2-(4-(2,5-dimethyl-2H-1,2,3-triazol-4-yl)piperidin-1-yl)-3,6-dimethyl-4-oxo-3,4-dihydroquinazolin-8-yl)ethyl)amino)-N-(methylsulfonyl) picolinamide]
1000 to 5000 | 250 to 500 | Cc1cc([C@@H](C)Nc2ccc(Cl)nc2C(=O)NS(C)(=O)=O)c2nc(N3C[C@@H]4[C@H](C3)[C@H]4c3ncn(C)n3)n(C)c(=O)c2c1 [Compound 507, 6-chloro-3-(((R)-1-(3,6-dimethyl-2-((1R,5S,6R)-6-(1-methyl-1H-1,2,4-triazol-3-yl)-3-azabicyclo[3.1.0]hexan-3-yl)-4-oxo-3,4-dihydroquinazolin-8-yl)ethyl)amino)-N-(methylsulfonyl) picolinamide]
1000 to 5000 | < 250 | Cc1cc([C@@H](C)Nc2ccc(Cl)nc2C(=O)NS(C)(=O)=O)c2nc(N3C[C@@H]4[C@H](C3)[C@H]4c3cc4ncccn4n3)n(C)c(=O)c2c1 [Compound 508, 6-chloro-3-(((R)-1-(3,6-dimethyl-4-oxo-2-((1R,5S,6R)-6-(pyrazolo[1,5-a]pyrimidin-2-yl)-3-azabicyclo[3.1.0]hexan-3-yl)-3,4-dihydroquinazolin-8-yl)ethyl)amino)-N-(methylsulfonyl) picolinamide]
≥ 5000 | 250 to 500 | Cc1cc([C@@H](C)Nc2ccc(Cl)nc2C(=O)NS(C)(=O)=O)c2nc(N3CCC(c4ncc(C5CC5)cn4)CC3)n(C)c(=O)c2c1 [Compound 509, (R)-6-chloro-3-((1-(2-(4-(5-cyclopropylpyrimidin-2-yl)piperidin-1-yl)-3,6-dimethyl-4-oxo-3,4-dihydroquinazolin-8-yl)ethyl)amino)-N-(methylsulfonyl) picolinamide]
1000 to 5000 | 250 to 500 | Cc1cc([C@@H](C)Nc2ccc(Cl)nc2C(=O)NS(C)(=O)=O)c2nc(N3C[C@@H]4[C@H](C3)[C@H]4c3cc(C)[nH]n3)n(C)c(=O)c2c1 [Compound 510, 6-chloro-3-(((R)-1-(3,6-dimethyl-2-((1R,5S,6R)-6-(5-methyl-1H-pyrazol-3-yl)-3-azabicyclo[3.1.0]hexan-3-yl)-4-oxo-3,4-dihydroquinazolin-8-yl)ethyl)amino)-N-(methylsulfonyl) picolinamide]
≥ 5000 | 500 to 1000 | Cc1cc([C@@H](C)Nc2ccc(Cl)nc2C(=O)NS(C)(=O)=O)c2nc(N3CCC(c4cc(C5CC5)[nH]n4)CC3)n(C)c(=O)c2c1 [Compound 511, (R)-6-chloro-3-((1-(2-(4-(5-cyclopropyl-1H-pyrazol-3-yl)piperidin-1-yl)-3,6-dimethyl-4-oxo-3,4-dihydroquinazolin-8-yl)ethyl)amino)-N-(methylsulfonyl) picolinamide]
1000 to 5000 | 250 to 500 | Cc1cc([C@@H](C)Nc2ccc(Cl)nc2C(=O)NS(C)(=O)=O)c2nc(N3CC[C@H](Oc4cnc(C)nc4)C3)n(C)c(=O)c2c1 [Compound 512, 6-chloro-3-(((R)-1-(3,6-dimethyl-2-((S)-3-((2-methylpyrimidin-5-yl)oxy)pyrrolidin-1-yl)-4-oxo-3,4-dihydroquinazolin-8-yl)ethyl)amino)-N-(methylsulfonyl) picolinamide]
≥ 5000 | 250 to 500 | Cc1cc([C@@H](C)Nc2ccc(Cl)nc2C(=O)NS(C)(=O)=O)c2nc(N3CC[C@H](Oc4ccc(F)cn4)C3)n(C)c(=O)c2c1 [Compound 513, 6-chloro-3-(((R)-1-(2-((S)-3-((5-fluoropyridin-2-yl)oxy)pyrrolidin-1-yl)-3,6-dimethyl-4-oxo-3,4-dihydroquinazolin-8-yl)ethyl)amino)-N-(methylsulfonyl) picolinamide]
1000 to 5000 | < 250 | Cc1cc([C@@H](C)Nc2ccc(Cl)nc2C(=O)NS(C)(=O)=O)c2nc(N3Cc4ccc(C)nc4C3)n(C)c(=O)c2c1 [Compound 514, (R)-6-chloro-3-((1-(3,6-dimethyl-2-(2-methyl-5,7-dihydro-6H-pyrrolo[3,4-b]pyridin-6-yl)-4-oxo-3,4-dihydroquinazolin-8-yl)ethyl)amino)-N-(methylsulfonyl) picolinamide]
1000 to 5000 | < 250 | Cc1cnc(C2[C@H]3CN(c4nc5c([C@@H](C)Nc6ccc(Cl)nc6C(=O)NS(C)(=O)=O)cc(C)cc5c(=O)n4C)C[C@@H]23)nc1 (stereo partly drawn) [Compound 515, 6-chloro-3-(((1R)-1-(3,6-dimethyl-2-((1R,5S)-6-(5-methylpyrimidin-2-yl)-3-azabicyclo[3.1.0]hexan-3-yl)-4-oxo-3,4-dihydroquinazolin-8-yl)ethyl)amino)-N-(methylsulfonyl) picolinamide]
